Results published in patent publication US10329302B2, “Bicyclic-fused heteroaryl or aryl compounds” (Pfizer Inc., priority 2014, dated 2019).
Read-outs that look alike come from different tables or passages of the source.

Legend:
[1] = molecular target: human IRAK4 FL (Full Length) (Homo sapiens (Human), UniProt Q9NWZ3); experiment: IRAK4 Enzymatic DELFIA Assay, Protocol A; format: biochemical
[2] = test system: R848-induced TNFα production by human peripheral blood mononuclear cells (PBMCs); experiment: R848 Induced TNFα in Human PBMC Assay; format: cell-based
[3] = human IRAK4 FL, 0.6 mM ATP (KM), read-out: IRAK4 DELFIA Protocol A IC50
[4] = Homo sapiens, PBMC, 3 h, read-out: R848-induced TNFa PBMC IC50 (nM)
[5] = human PBMC, absence of serum, 3 hours, read-out: R848-induced TNFa PBMC IC50

human IRAK4 FL (Full Length), sequence (Q9NWZ3 whole entry): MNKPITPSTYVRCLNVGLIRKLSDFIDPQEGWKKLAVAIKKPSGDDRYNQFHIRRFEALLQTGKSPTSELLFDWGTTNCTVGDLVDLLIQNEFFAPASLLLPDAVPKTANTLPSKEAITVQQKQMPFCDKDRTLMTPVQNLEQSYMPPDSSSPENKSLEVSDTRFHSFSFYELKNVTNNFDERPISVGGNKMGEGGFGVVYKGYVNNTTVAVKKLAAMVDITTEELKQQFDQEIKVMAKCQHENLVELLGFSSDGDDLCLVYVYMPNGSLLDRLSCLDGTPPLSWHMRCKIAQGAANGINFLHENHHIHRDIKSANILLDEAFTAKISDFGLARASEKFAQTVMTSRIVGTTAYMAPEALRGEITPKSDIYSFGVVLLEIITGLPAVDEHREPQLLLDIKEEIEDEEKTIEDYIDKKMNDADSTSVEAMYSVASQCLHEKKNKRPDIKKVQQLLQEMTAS

Row | SMILES | IC50 [1, 3] | IC50 [2, 4] | IC50 [2, 5] | IC50 [1]
1 | COc1cc2c(OC[C@@H]3C[C@@H](CC(F)(F)F)C(=O)N3)nccc2cc1C(N)=O [Example 267, 7-methoxy-1-{[(2S,4S)-5-oxo-4-(2,2,2-trifluoroethyl)pyrrolidin-2-yl]methoxy}isoquinoline-6-carboxamide] | 15 nM | 158 nM | – | –
2 | COc1cc2c(OC[C@@H]3C[C@](C)(F)C(=O)N3)ccnc2cc1C(N)=O [Example 268, 4-{[(2S,4S)-4-fluoro-4-methyl-5-oxopyrrolidin-2-yl]methoxy}-6-methoxyquinoline-7-carboxamide] | 1.4 nM | 175 nM | – | –
3 | CC(C)Oc1cc2c(OC[C@@H]3C[C@](C)(F)C(=O)N3)ccnc2cc1C(N)=O [Example 269, 4-{[(2S,4S)-4-fluoro-4-methyl-5-oxopyrrolidin-2-yl]methoxy}-6-(propan-2-yloxy)quinoline-7-carboxamide] | 0.6 nM | 104 nM | – | –
4 | COc1cc2c(OC[C@H]3NC(=O)[C@@H](F)[C@H]3C)nccc2cc1C#N [Example 272, 1-{[(2S,3S,4S)-4-fluoro-3-methyl-5-oxopyrrolidin-2-yl]methoxy}-7-methoxyisoquinoline-6-carbonitrile] | 432 nM | 2470 nM | – | –
5 | COc1cc2c(OC[C@@H]3C[C@@](F)(CCF)C(=O)N3)ccnc2cc1C(N)=O [Example 274, 4-{[(2S,4R)-4-fluoro-4-(2-fluoroethyl)-5-oxopyrrolidin-2-yl]methoxy}-6-methoxyquinoline-7-carboxamide] | 2.2 nM | 748 nM | – | –
6 | COc1cc2c(OC[C@H]3C[C@@H](F)C(=O)N3)nccc2cc1C(N)=O [Example 275, 1-{[(2R,4R)-4-fluoro-5-oxopyrrolidin-2-yl]methoxy}-7-methoxyisoquinoline-6-carboxamide] | 119 nM | 5140 nM | – | –
7 | COc1cc2c(OC[C@@H]3C[C@@](F)(CCF)C(=O)N3)nccc2cc1C(N)=O [Example 276, 1-{[(2S,4R)-4-fluoro-4-(2-fluoroethyl)-5-oxopyrrolidin-2-yl]methoxy}-7-methoxyisoquinoline-6-carboxamide] | 4.1 nM | 107 nM | – | –
8 | CCOc1cc2c(OC[C@@H]3C[C@](C)(F)C(=O)N3)nccc2cc1C(N)=O [Example 278, 7-ethoxy-1-{[(2S,4S)-4-fluoro-4-methyl-5-oxopyrrolidin-2-yl]methoxy}isoquinoline-6-carboxamide] | 8.5 nM | 299 nM | – | –
9 | CCOc1cc2c(OC[C@H]3NC(=O)[C@@H](F)[C@H]3C)ccnc2cc1C(N)=O [Example 279, 6-ethoxy-4-{[(2S,3S,4S)-4-fluoro-3-methyl-5-oxopyrrolidin-2-yl]methoxy}quinoline-7-carboxamide] | 1.2 nM | 212 nM | – | –
10 | C[C@@H]1[C@H](F)C(=O)N[C@@H]1COc1nccc2cc(C(N)=O)c(OC3CC3)cc12 [Example 281, 7-(cyclopropyloxy)-1-{[(2S,3S,4S)-4-fluoro-3-methyl-5-oxopyrrolidin-2-yl]methoxy}isoquinoline-6-carboxamide] | 11 nM | – | 127 nM | –
11 | CCOc1cc2c(OC[C@H]3NC(=O)[C@@H]4C[C@H]34)nccc2cc1C(N)=O [Example 282, 7-ethoxy-1-{[(1S,2S,5R)-4-oxo-3-azabicyclo[3.1.0]hex-2-yl]methoxy}isoquinoline-6-carboxamide] | 11 nM | 191 nM | – | –
12 | COc1cc2c(OC[C@H]3NC(=O)[C@H]4[C@@H]3C4(Cl)Cl)nccc2cc1C(N)=O [Example 311, 1-{[(1S,2S,5R)-6,6-dichloro-4-oxo-3-azabicyclo[3.1.0]hex-2-yl]methoxy}-7-methoxyisoquinoline-6-carboxamide] | 229 nM | 1080 nM | – | –
13 | CCC[C@@H]1CC(=O)N[C@@H]1COc1nccc2cc(C(N)=O)c(OC)cc12 [Example 312, 7-methoxy-1-{[(2S,3R)-5-oxo-3-propylpyrrolidin-2-yl]methoxy}isoquinoline-6-carboxamide] | 1.3 nM | 26 nM | – | –
14 | COC[C@@H]1[C@H]2C(=O)N[C@H](COc3nccc4cc(C(N)=O)c(OC)cc34)[C@@H]12 [Example 313, 7-methoxy-1-{[(1S,2S,5S)-6-(methoxymethyl)-4-oxo-3-azabicyclo[3.1.0]hex-2-yl]methoxy}isoquinoline-6-carboxamide] | 210 nM | 1590 nM | – | –
15 | COC[C@H]1[C@H]2C(=O)N[C@H](COc3nccc4cc(C(N)=O)c(OC)cc34)[C@@H]12 [Example 314, 7-methoxy-1-{[(1S,2S,5S)-6-(methoxymethyl)-4-oxo-3-azabicyclo[3.1.0]hex-2-yl]methoxy}isoquinoline-6-carboxamide] | 1980 nM | 8360 nM | – | –
16 | COc1cc2c(OC[C@H]3NC(=O)[C@@H]4[C@@H](F)[C@@H]43)nccc2cc1C(N)=O [Example 315, 1-{[(1S,2S,5R)-6-fluoro-4-oxo-3-azabicyclo[3.1.0]hex-2-yl]methoxy}-7-methoxyisoquinoline-6-carboxamide] | 1.5 nM | 45 nM | – | –
17 | CC[C@@H]1[C@H](F)C(=O)N[C@@H]1COc1ccnc2cc(C(N)=O)c(OC)cc12 [Example 316, 4-{[(2S,3S,4S)-3-ethyl-4-fluoro-5-oxopyrrolidin-2-yl]methoxy}-6-methoxyquinoline-7-carboxamide] | 129 nM | 464 nM | – | –
18 | COc1cc2c(OC[C@H]3NC(=O)[C@]4(F)C[C@H]34)nccc2cc1C(N)=O [Example 317, 1-{[(1R,2S,5S)-5-fluoro-4-oxo-3-azabicyclo[3.1.0]hex-2-yl]methoxy}-7-methoxyisoquinoline-6-carboxamide] | – | – | 22 nM | 0.6 nM
19 | C#CCOc1cc2c(OC[C@@H]3CCC(=O)N3)nccc2cc1C(N)=O [Example 318, 1-{[(2S)-5-oxopyrrolidin-2-yl]methoxy}-7-(prop-2-yn-1-yloxy)isoquinoline-6-carboxamide] | 1940 nM | 17200 nM | – | –
20 | C=C=COc1cc2c(OC[C@@H]3CCC(=O)N3)nccc2cc1C(N)=O [Example 319, 1-{[(2S)-5-oxopyrrolidin-2-yl]methoxy}-7-(propadienyloxy)isoquinoline-6-carboxamide] | 1950 nM | 11000 nM | – | –
21 | COc1cc2c(OC[C@H]3NC(=O)[C@@H]4[C@@H](C(F)F)[C@@H]43)nccc2cc1C(N)=O [Example 320, 1-{[(1R,2S,5S)-6-(difluoromethyl)-4-oxo-3-azabicyclo[3.1.0]hex-2-yl]methoxy}-7-methoxyisoquinoline-6-carboxamide] | 0.8 nM | 11 nM | – | –
22 | COc1cc2c(OC[C@H]3NC(=O)[C@]4(F)CC[C@H]34)nccc2cc1C(N)=O [Example 322, 1-{[(1R,2S,5S)-5-fluoro-4-oxo-3-azabicyclo[3.2.0]hept-2-yl]methoxy}-7-methoxyisoquinoline-6-carboxamide] | 6.1 nM | 26 nM | – | –
23 | COc1cc2c(OC[C@H]3NC(=O)[C@@]4(F)[C@@H]3[C@@H]4C)ccnc2cc1C(N)=O [Example 323, 4-{[(1R,2S,5S)-5-fluoro-6-methyl-4-oxo-3-azabicyclo[3.1.0]hex-2-yl]methoxy}-6-methoxyquinoline-7-carboxamide] | 0.2 nM | 30 nM | – | –
